Results on one compound are retold here after patent US5773239A, “Mannosidase inhibitors, process for their preparation and their use as therapeutic agents” (Mount Sinai Hospital Corporation., priority 1995, dated 1998).

One experiment relates to B16F10 melanoma cells. The following applies: 1000 ng/ml; cited from earlier work.
The subject of a further experiment is MDAY-D2 tumor cells. The settings on record: cited from earlier work.
The target of experiment [1] is T1, rat liver Golgi α-mannosidase II (Rattus norvegicus, UniProt P28494).
T1 construct: The assay for rat liver Golgi α-mannosidase II; from tissue; host or cells: rat liver (Golgi)
T1 sequence (P28494 1-1148): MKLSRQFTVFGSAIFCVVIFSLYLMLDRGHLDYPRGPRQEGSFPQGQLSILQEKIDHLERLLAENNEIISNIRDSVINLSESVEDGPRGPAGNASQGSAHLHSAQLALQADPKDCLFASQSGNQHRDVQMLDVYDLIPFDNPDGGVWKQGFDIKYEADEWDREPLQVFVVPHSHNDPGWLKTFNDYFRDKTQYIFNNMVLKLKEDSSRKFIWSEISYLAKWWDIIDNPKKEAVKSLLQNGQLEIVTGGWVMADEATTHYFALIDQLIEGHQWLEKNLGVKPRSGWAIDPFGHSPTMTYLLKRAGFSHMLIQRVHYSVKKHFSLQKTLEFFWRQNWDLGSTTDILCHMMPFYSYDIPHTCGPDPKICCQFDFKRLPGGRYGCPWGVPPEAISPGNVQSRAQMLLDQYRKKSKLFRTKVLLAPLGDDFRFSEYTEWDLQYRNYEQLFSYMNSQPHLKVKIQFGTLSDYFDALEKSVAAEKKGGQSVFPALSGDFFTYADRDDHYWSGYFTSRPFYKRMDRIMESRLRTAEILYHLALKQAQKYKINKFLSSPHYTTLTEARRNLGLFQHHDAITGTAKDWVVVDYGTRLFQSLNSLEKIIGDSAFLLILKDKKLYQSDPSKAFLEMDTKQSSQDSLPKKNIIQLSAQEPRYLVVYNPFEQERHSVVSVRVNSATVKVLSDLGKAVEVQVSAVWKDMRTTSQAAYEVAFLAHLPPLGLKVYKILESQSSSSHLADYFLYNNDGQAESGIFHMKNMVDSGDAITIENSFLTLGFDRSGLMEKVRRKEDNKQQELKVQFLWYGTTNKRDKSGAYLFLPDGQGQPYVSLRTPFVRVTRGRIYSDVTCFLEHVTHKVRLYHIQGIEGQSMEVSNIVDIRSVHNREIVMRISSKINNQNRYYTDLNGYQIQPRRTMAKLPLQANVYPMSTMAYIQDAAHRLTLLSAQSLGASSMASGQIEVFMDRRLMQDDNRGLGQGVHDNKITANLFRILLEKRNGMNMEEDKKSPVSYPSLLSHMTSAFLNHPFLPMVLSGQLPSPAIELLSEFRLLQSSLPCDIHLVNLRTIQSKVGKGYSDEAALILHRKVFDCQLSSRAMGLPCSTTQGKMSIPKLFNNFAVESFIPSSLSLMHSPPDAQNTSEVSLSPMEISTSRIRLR
As to the kind of experiment: Rat liver Golgi α-mannosidase II assay. The experiment is classed as biochemical. The following applies: para-nitrophenyl α-mannose, pH 5.6; read-out: IC50 ManII. On the procedure:
The assay for rat liver Golgi α-mannosidase II contained 5 mM para-nitrophenylα-mannose, 40 mM sodium acetate pH 5.6, plus serially diluted test compouunds and mannosidase enzyme in a total volume of 50 ul, in 96 well plates. Plates were incubated 45 min at 37° C., then the reaction was stopped with 50 μl of 0.5M sodium carbonate. […] The lysosomal mannosidase was done in the same procedure but with 40 mM sodium acetate buffer pH 5.0. The numbers in the table are IC50 values in μM for inhibition of mannosidase activity.

The target of a further experiment is lysosomal mannosidase. As to the kind of experiment: Lysosomal mannosidase assay (pH 5.0). The format is biochemical. The settings on record: para-nitrophenyl α-mannose. On the procedure:
The assay for rat liver Golgi α-mannosidase II contained 5 mM para-nitrophenylα-mannose, 40 mM sodium acetate pH 5.6, plus serially diluted test compouunds and mannosidase enzyme in a total volume of 50 ul, in 96 well plates. Plates were incubated 45 min at 37° C., then the reaction was stopped with 50 μl of 0.5M sodium carbonate. The absorbance of reaction products was read at 405 nm. The lysosomal mannosidase was done in the same procedure but with 40 mM sodium acetate buffer pH 5.0. The numbers in the table are IC50 values in μM for inhibition of mannosidase activity.

Bounds are passed on as bounds.

As for `O[C@H]1[C@H]2[C@H](O)CCCN2C[C@H]1O` [SW, Swainsonine, reference compound], the “inhibition of organ colonization by B16F10 melanoma cells” value in the experiment on B16F10 melanoma cells is reported as more than 90%. Also, the “L-PHA concentration to which cells cultured in the presence of SW are resistant” value with MDAY-D2 tumor cells is more than 100 µg/mL. Besides, the 50% inhibitory concentration (IC50) is 100 nM in experiment [1] and 82 nM on lysosomal mannosidase.
